Values quoted from earlier work as cited in patent publication US12127968B2, “Methods and devices for controlled delivery” (Femasys Inc., priority 2018, dated 2024).
Structures can show the parent of a compound that is named as a salt.

Test system: ovulation
Conditions: patients whose only factor is ovulatory dysfunction

## CCN(CC)CCOc1ccc(C(=C(Cl)c2ccccc2)c2ccccc2)cc1 [Clomiphene citrate]
  patients in whom normal ovulation is restored: about 80%
